pEC50: −log10 of the molar value.
Target: estrogen receptor alpha (ESR1) (Homo sapiens, UniProt P03372)
Assay: cell-based
Settings: for ER-alpha MCF7 HCS Sinf: MCF7 breast cancer cells, 4 hours, plateau of the maximal effect, DMSO and Fulvestrant define 0% and 100% changes in ESR1
Protocol: Where more than one name is associated with a Formula I compound or intermediate, the chemical structure shall define the compound.
Cell plates were incubated at 37° C., for 4 hours. Fixation and permeabilization were carried out using a Biotek EL406 plate washer and dispenser as follows. […] Samples were incubated 30 minutes. Well contents was aspirated and 50 ul/well of Phosphate Buffered Saline (PBS) containing 0.5% w/v bovine serum albumen, 0.5% v/v Triton X-100 (Antibody Dilution Buffer) was added to each well. Samples were incubated for 30 minutes. Well contents were aspirated and washed 3 times with 100 ul/well of PBS. Immunofluorescence staining of estrogen receptor alpha (ESR1) was carried out using a Biotek EL406 plate washer and dispenser as follows. […] Samples were incubated for 2 hours at room temperature. Samples were washed 4 times with 100 ul/well of PBS. […] Samples were incubated for 2 hours at room temperature. Samples were washed 3 times with 100 ul/well of PBS using a Biotek EL406. Quantitative fluorescence imaging of ESR1 was carried out using a Cellomics Arrayscan V (Thermo). […] Channel 1 (DNA stain) was used to define the nuclear region (Circ). […] Data analysis was carried out using Genedata Screener Software, with DMSO and 5 nM Fulvestrant treated samples being used to define the 0% and 100% changes in ESR1. The “Robust Fit” method was used to define the inflexion point of curve (EC50) and the plateau of the maximal effect (Sin f).

Sequence of estrogen receptor alpha (ESR1) (P03372 whole entry): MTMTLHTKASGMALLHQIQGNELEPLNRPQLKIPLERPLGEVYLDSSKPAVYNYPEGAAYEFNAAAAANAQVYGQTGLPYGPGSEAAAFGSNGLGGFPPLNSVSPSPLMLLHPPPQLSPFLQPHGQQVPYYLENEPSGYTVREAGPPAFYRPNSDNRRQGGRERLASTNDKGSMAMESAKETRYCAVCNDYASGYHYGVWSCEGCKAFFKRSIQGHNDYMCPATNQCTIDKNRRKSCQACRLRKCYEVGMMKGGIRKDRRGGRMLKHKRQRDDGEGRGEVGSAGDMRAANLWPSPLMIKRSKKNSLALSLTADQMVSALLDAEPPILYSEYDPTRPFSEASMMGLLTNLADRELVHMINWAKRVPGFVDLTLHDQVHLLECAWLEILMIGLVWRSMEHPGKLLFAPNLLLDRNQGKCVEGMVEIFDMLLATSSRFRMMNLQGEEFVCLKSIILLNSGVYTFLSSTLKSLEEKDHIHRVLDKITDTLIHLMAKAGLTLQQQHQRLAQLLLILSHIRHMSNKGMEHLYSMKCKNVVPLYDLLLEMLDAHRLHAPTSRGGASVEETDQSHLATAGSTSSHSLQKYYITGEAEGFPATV

Row | Compound | pEC50 | ER-alpha MCF7 HCS Sinf
1 | CCN(Cc1ccc(OCCN2CC(CF)C2)cc1)c1cc(OC)ccc1C1CCc2cc(O)ccc2C1 (centres unmarked) [Example 13, 6-(2-(Ethyl(4-(2-(3-(fluoromethyl)azetidin-1-yl)ethoxy)benzyl)amino)-4-methoxyphenyl)-5,6,7,8-tetrahydronaphthalen-2-ol] | 8.12 | −55%
2 | Cc1c(-c2ccccc2)n(Cc2ccc(OCCN3CC(CF)C3)cc2)c2ccccc12 [Example 4, 1-(4-(2-(3-(Fluoromethyl)azetidin-1-yl)ethoxy)benzyl)-3-methyl-2-phenyl-1H-indole] | 6.70 | −81%
3 | CC/C(=C(\c1ccc(O)cc1)c1ccc(OCCN2CC(CF)C2)cc1)c1ccccc1 [Example 23] | 9.23 | −95%
4 | O=C(c1ccc(OCCN2CC(CF)C2)cc1)c1c(-c2ccc(O)cc2)sc2cc(O)ccc12 [Example 9, (4-(2-(3-(fluoromethyl)azetidin-1-yl)ethoxy)phenyl)(6-hydroxy-2-(4-hydroxyphenyl)benzo[b]thiophen-3-yl)methanone] | 8.96 | −97%
5 | Cc1c(-c2ccc(O)cc2)n(Cc2ccc(OCCN3CC(CF)C3)cc2)c2cc(F)c(O)cc12 [Example 49, 6-fluoro-1-(4-(2-(3-(fluoromethyl)azetidin-1-yl)ethoxy)benzyl)-2-(4-hydroxyphenyl)-3-methyl-1H-indol-5-ol] | 9.73 | −95.6%
6 | CS(=O)(=O)c1ccc(-c2ccc3c(F)c(O)ccc3c2Oc2ccc(OCCN3CC[C@@H](CF)C3)cc2)cc1 [Example 79, (R)-1-fluoro-5-(4-(2-(3-(fluoromethyl)pyrrolidin-1-yl)ethoxy)phenoxy)-6-(4-(methylsulfonyl)phenyl) naphthalen-2-ol] | 10.14 | −89.6%
7 | CC/C(=C(/c1ccc(OCCN2CC(CF)C2)cc1)c1ccc2[nH]ncc2c1)c1ccc(F)cc1Cl [Example 82, 5-[(E)-2-(2-chloro-4-fluoro-phenyl)-1-[4-[2-[3-(fluoromethyl)azetidin-1-yl]ethoxy]phenyl]but-1-enyl]-1H-indazole] | 10.65 | −96.9%
8 | Cc1c(-c2ccc(O)cc2Cl)n(Cc2ccc(OCCN3CC(CF)C3)cc2)c2ccc(O)cc12 [Example 47, 2-(2-chloro-4-hydroxy-phenyl)-1-[[4-[2-[3-(fluoromethyl)azetidin-1-yl]ethoxy]phenyl]methyl]-3-methyl-indol-5-ol] | 9.94 | −94.1%
9 | Cc1cc(F)ccc1-c1sc2cc(O)ccc2c1C(=O)c1ccc(OCCN2CC(CF)C2)cc1 [Example 38, (2-(4-fluoro-2-methylphenyl)-6-hydroxybenzo[b]thiophen-3-yl)(4-(2-(3-(fluoromethyl)azetidin-1-yl)ethoxy)phenyl)methanone] | 9.06 | −96%
10 | COc1ccc(-c2sc3cc(O)ccc3c2Oc2ccc(OC[C@H](C)N3CC[C@@H](CF)C3)cc2)cc1 [Example 12, 3-(4-((S)-2-((R)-3-(Fluoromethyl)pyrrolidin-1-yl)propoxy)phenoxy)-2-(4-methoxyphenyl)benzo [6]thiophen-6-ol] | 6.51 | −50%
11 | CC/C(=C(\c1ccc(O)cc1)c1ccc(OC[C@H](C)N2CC[C@@H](CF)C2)cc1)c1ccccc1 [Example 24, 4-((Z)-1-(4-((S)-2-((R)-3-(Fluoromethyl)pyrrolidin-1-yl)propoxy)phenyl)-2-phenylbut-1-en-1-yl)phenol] | 9.74 | −58%
12 | Cc1c(-c2ccc(O)cc2Cl)n(Cc2ccc(OCCN3CC[C@@H](CF)C3)cc2)c2ccc(O)cc12 [Example 55, 2-(2-chloro-4-hydroxyphenyl)-1-(4-(2-((R)-3-(fluoromethyl)pyrrolidin-1-yl)ethoxy)benzyl)-3-methyl-1H-indol-5-ol] | 10.70 | −98.7%
13 | Cc1c(-c2ccc(O)c(Cl)c2)n(Cc2ccc(OCCN3CC(CF)C3)cc2)c2ccc(O)cc12 [Example 46, 2-(3-chloro-4-hydroxy-phenyl)-1-[[4-[2-[3-(fluoromethyl)azetidin-1-yl]ethoxy]phenyl]methyl]-3-methyl-indol-5-ol] | 10.52 | −97.8%
14 | C[C@@H](COc1ccc([C@@H]2Oc3ccc(O)cc3S[C@@H]2c2ccc(O)cc2)cc1)N1CC[C@@H](CF)C1 (mixture of isomers) [Example 30, 2-(4-((S)-2-((R)-3-(Fluoromethyl)pyrrolidin-1-yl)propoxy)phenyl)-3-(4-hydroxyphenyl)-2,3-dihydrobenzo[b][1,4]oxathiin-6-ol] | 8.96 | −99%
15 | CC/C(=C(\c1ccccc1)c1ccc(OCCN2CC[C@@H](CF)C2)cc1)c1ccccc1 [Example 19, (R,Z)-1-(2-(4-(1,2-Diphenylbut-1-en-yl)phenoxy)ethyl)-3-(fluoromethyl)pyrrolidine] | 7.82 | −75%
16 | Oc1ccc(C(=C2CCCCC2)c2ccc(OCCN3CC(CF)C3)cc2)cc1 [Example 18, 4-(Cyclohexylidene-{4-[2-(3-fluoromethyl-azetidin-1-yl)-ethoxy]-phenyl}-methyl)-phenol] | 7.92 | −89%
17 | Oc1ccc([C@H]2Sc3cc(O)ccc3O[C@H]2c2ccc(OCCN3CC[C@@H](CF)C3)cc2)cc1 (racemic) [Example 28, 2-(4-(2-((R)-3-(Fluoromethyl)pyrrolidin-1-yl)ethoxy)phenyl)-3-(4-hydroxyphenyl)-2,3-dihydrobenzo[b][1,4]oxathiin-6-ol] | 9.00 | −97%
18 | Oc1ccc(-c2sc3cc(O)ccc3c2Oc2ccc(OCCN3CC(CF)C3)cc2)cc1 [Example 11, 3-(4-(2-(3-(Fluoromethyl)azetidin-1-yl)ethoxy)phenoxy)-2-(4-hydroxyphenyl)benzo[b]thiophen-6-ol] | 9.89 | −94%
19 | O=C(c1ccc(OCCN2CC(CF)C2)cc1)c1c(-c2ccc(F)c(Cl)c2)sc2cc(O)ccc12 [Example 37, (2-(3-chloro-4-fluorophenyl)-6-hydroxybenzo[b]thiophen-3-yl)(4-(2-(3-(fluoromethyl)azetidin-1-yl)ethoxy)phenyl)methanone] | 8.36 | −97%
20 | Cc1c(-c2ccc(O)cc2Cl)n(Cc2ccc(OC[C@H](C)N3CC[C@@H](CF)C3)cc2)c2ccc(O)cc12 [Example 56, 2-(2-chloro-4-hydroxyphenyl)-1-(4-((S)-2-((R)-3-(fluoromethyl)pyrrolidin-1-yl)propoxy)benzyl)-3-methyl-1H-indol-5-ol] | 10.55 | −95.6%
21 | Oc1ccc(-c2snc(-c3ccccc3Cl)c2-c2ccc(OCCN3CC(CF)C3)c(F)c2)cc1 [Example 16, 4-(3-(2-Chloro-phenyl)-4-{3-fluoro-4-[2-(3-fluoromethyl-azetidin-1-yl)-ethoxy]-phenyl}-isothiazol-5-yl)-phenol] | – | −99.2%
22 | Oc1ccc2c(c1)O[C@H](c1ccc(OCCN3CC(CF)C3)cc1)C1=C2CCOc2ccc(O)cc21 [Example 77, (R)-8-(4-(2-(3-(fluoromethyl)azetidin-1-yl)ethoxy)phenyl)-2,8-dihydro-1H-benzo[2,3]oxepino[4,5-c]chromene-6,11-diol] | 8.02 | −84.5%
23 | Cc1cc(-c2c(C)c3cc(O)ccc3n2Cc2ccc(OC[C@H](C)N3CC[C@@H](CF)C3)cc2)ccc1O [Example 43, 1-[[4-[(2S)-2-[(3R)-3-(fluoromethyl)pyrrolidin-1-yl]propoxy]phenyl]methyl]-2-(4-hydroxy-3-methyl-phenyl)-3-methyl-indol-5-ol] | 10.75 | −96.0%
24 | Cc1c(-c2ccc(O)c(F)c2)n(Cc2ccc(OCCN3CC[C@@H](CF)C3)cc2)c2ccc(O)cc12 [Example 44, 2-(3-fluoro-4-hydroxy-phenyl)-1-[[4-[2-[(3R)-3-(fluoromethyl)pyrrolidin-1-yl]ethoxy]phenyl]methyl]-3-methyl-indol-5-ol] | 10.56 | −98.1%
25 | Cc1cc(O)ccc1-c1c(C)c2cc(O)ccc2n1Cc1ccc(OCCN2CC(CF)C2)cc1 [Example 57, 1-[[4-[2-[3-(fluoromethyl)azetidin-1-yl]ethoxy]phenyl]methyl]-2-(4-hydroxy-2-methyl-phenyl)-3-methyl-indol-5-ol] | 10.33 | −93.4%
26 | O=C(C1=C(c2ccc(O)cc2)CCc2cc(O)ccc21)c1ccc(OCCN2CC(CF)C2)cc1 [Example 32, (4-(2-(3-(Fluoromethyl)azetidin-1-yl)ethoxy)phenyl)(6-hydroxy-2-(4-hydroxyphenyl)-3,4-dihydronaphthalen-1-yl)methanone] | 9.72 | −101%
27 | O=C(c1ccc(OCCN2CC(CF)C2)cc1)c1c(-c2ccc(F)c(F)c2)sc2cc(O)ccc12 [Example 35, (2-(3,4-difluorophenyl)-6-hydroxybenzo[b]thiophen-3-yl)(4-(2-(3-(fluoromethyl)azetidin-1-yl)ethoxy)phenyl)methanone] | 9.26 | −98%
